Results published in patent US6218384A, “3-Oxo-pyrido(1,2-a)benzimidazole-4-carboxyl and 4-oxo-azepino(1,2-a)benzimidazole-5-carboxyl derivatives useful in treating central nervous system disorders” (Ortho-McNeil Pharmaceutical, Inc., priority 1997, dated 2001).

Experiments:
[1] = biological target: benzodiazepine site of the GABA-A receptor; assay: Benzodiazepine Receptor Binding Assay (inhibition of 3H-flunitrazepam binding); details: Table 1; ca. 3 nM 3H-flunitrazepam, 25° C., 10-20 min; >10,000 = not active
[2] = Suppression of metrazol-induced convulsions; assay type: in vivo, male CD1 mice; details: Mus musculus, 0.5 h; Table 1; ip; mice; clonic convulsions after sc CD90 metrazol; >30 = active dose not determined; read-out: Metrazol (ip) ED50
Method: Selected compounds of the invention were tested for their ability to reduce metrazol-induced convulsions in mice (Swinyard, E. A. J. Am. Pharm Assoc. 1949, 38, 201). Male CD1 mice, were fasted at least 16 hours, were divided into equal groups and test compounds or vehicle were administered parenterally. Water was not withheld except during the period of observations. At the time of suspected peak activity, anti-pentylenetetrazol (anti-metrazol) activity was evaluated by the subcutaneous administration of the CD90 dose of metrazol (the dose of metrazol was determined from the dose-response curve producing clonic convulsions in 90% of animals that received the corresponding vehicle for this experiment). Metrazol was dissolved in 0.9% sodium chloride solution, and its dose volume was 10 ml/kg. Animals were housed individually for observation of clonic convulsions, tonic convulsions and death for a period of 30 min. Test compounds that blocked the clonic seizure component of the convulsion in at least 50% of the animals were considered active. The biological assay was considered to be valid if the effects of a known anticonvulsant (positive control) were detected, within the same experiment. Activity was reported as percent reduction of clonic convulsions from the vehicle group. The ED50 values of active compounds were calculated by the method of probits (Finney, D. J. 1971. Probit Analysis. London: Cambridge University Press) and are listed in Tables 1 to 5.

[3] = Suppression of anxiety (punished licking, conflict test) in the adult male rat; assay type: in vivo, male rats; details: Table 1, ip, minimum effective dose, >10 = active dose not determined, read-out: Conflict (ip) MED
Method: The anxiolytic activity of selected compounds of the invention was assessed by determining their ability to release (disinhibit) behavior that had been suppressed by punishment (Vogel, J. R. et al. Psychopharmacology 1971, 21, 1). Male rats were deprived of water for 48 hours and were deprived of food for 24 hours prior to testing. After the first 24 hours of water deprivation, they were placed in the conflict chamber for a training period; wherein, they were allowed 200 unpunished licks from a bottle containing tap water. The experiment was run the next day. At the expected time of peak activity, the animals were placed in the chamber and allowed access to tap water. […] Their first lick initiates a 3-min test session. Subsequently,every 20th lick was punished by a 0.2-s shock delivered via the stainless-steel drinking-tube. Vehicle-treated control animals generally were willing to accept a median number of 3 to 8 shocks per test session. […] The Wilcoxon rank-sum test (Mann-WhitneyU-test) was used to test for an increase (p<0.05, 1-tailed) in the median number of shocks in drug-treated groups, compared to a concurrently run vehicle-treated group. The biological assay is considered to be valid if the effects of a known anxiolytic (positive control) are detected, within the same experiment. A compound was considered active if there is a significant difference in the median number of shocks tolerated between the drug-treated group and the control group. The MED was defined as the minimum dose of the drug-treatment as analyzed using the Wilcoxon rank-sum test (SAS; Statistical Analysis System, version 5.16). If the MED value is greater than 10, an active dose of the compound being tested had not been determined.

Compound	IC50 [1] [nM]	ED50 [2] [mg/kg]	minimal effective dose [3] [mg/kg]
O=C1CCN2C(=C1C(=O)Nc1nccnn1)Nc1ccccc12 [compound 49]	54	10	> 10
O=C1CCN2C(=C1C(=O)Nc1ccc3[nH]ncc3c1)Nc1ccccc12 [compound 50]	96	> 10	10
O=C1CCN2C(=C1C(=O)Nc1cccc3ccoc13)Nc1ccccc12 [compound 51]	120	> 10	10
O=C1CCN2C(=C1C(=O)Nc1ccnc(Cl)c1)Nc1ccccc12 [compound 52]	1400	> 10	> 10
O=C1CCN2C(=C1C(=O)Nc1ncncn1)Nc1ccccc12 [compound 53]	110	> 10	> 10
N#Cc1ccc(NC(=O)C2=C3Nc4ccccc4N3CCC2=O)cc1 [compound 54]	13000	> 10	< 10
O=C1CCN2C(=C1C(=O)Nc1c(F)c(F)nc(F)c1F)Nc1ccccc12 [compound 55]	350	> 10	> 10
COc1ccc2c(c1)NC1=C(C(=O)Nc3ccncc3)C(=O)CCN12 [compound 57]	500	> 10	> 10
O=C1CCN2C(=C1C(=O)NCc1ccncc1)Nc1ccccc12 [compound 59]	65	> 10	> 10
O=C1CCN2C(=C1C(=O)NN1CCOCC1)Nc1ccccc12 [compound 60]	3000	> 10	< 10
NS(=O)(=O)c1ccc(NC(=O)C2=C3Nc4ccccc4N3CCC2=O)cc1 [compound 61]	10000	> 10	10
O=C1CCN2C(=C1C(=O)NCc1cccnc1)Nc1ccccc12 [compound 62]	155	> 10	> 10
O=C1CCN2C(=C1C(=O)Nc1cnccn1)Nc1ccccc12 [compound 63]	360	> 10	> 10
Cc1nnc(NC(=O)C2=C3Nc4ccccc4N3CCC2=O)s1 [compound 64]	1100	> 10	> 10
O=C1CCN2C(=C1C(=O)Nc1cccc3cnccc13)Nc1ccccc12 [compound 65]	770	10	> 10
CSc1cnccc1NC(=O)C1=C2Nc3ccccc3N2CCC1=O [compound 66]	3300	10	10
O=C1CCN2C(=C1C(=O)Nc1c(Cl)c(F)nc(F)c1Cl)Nc1ccccc12 [compound 67]	10000	10	10
Cc1cc(NC(=O)C2=C3Nc4ccccc4N3CCC2=O)on1 [compound 68]	54	> 10	> 10
O=C1CCN2C(=C1C(=O)Nc1nncs1)Nc1ccccc12 [compound 69]	300	> 10	> 10
O=C1CCN2C(=C1C(=O)Nc1cccnc1Cl)Nc1ccccc12 [compound 70]	68	3	10
CCN(CC)c1ccc(NC(=O)C2=C3Nc4ccccc4N3CCC2=O)cc1 [compound 71]	1800	3	> 10
O=C1CCN2C(=C1C(=O)Nc1ccc3ncsc3c1)Nc1ccccc12 [compound 72]	10000	> 10	< 10
O=C1CCN2C(=C1C(=O)Nc1ccc3[nH]nnc3c1)Nc1ccccc12 [compound 73]	160	> 10	> 10
O=C1CCN2C(=C1C(=O)Nc1nnc(C(F)(F)F)s1)Nc1ccccc12 [compound 74]	10000	10	> 10

Compound	IC50 [1] [nM]	ED50 [2] [mg/kg]	minimal effective dose [3] [mg/kg]
O=C1CCN2C(=C1C(=O)Nc1ccncc1Cl)Nc1ccccc12 [compound 75]	220	1 to 10	> 10
Cc1cc(NC(=O)C2=C3Nc4ccccc4N3CCC2=O)c2ccccc2n1 [compound 76]	10000	10	> 10
Cc1cnccc1NC(=O)C1=C2Nc3ccccc3N2CCC1=O [compound 77]	7100	> 10	> 10
O=C1CCN2C(=C1C(=O)Nc1ncc(C(F)(F)F)cc1C(F)(F)F)Nc1ccccc12 [compound 78]	> 10000	> 10	10
CSc1cc(N(C)C)ccc1NC(=O)C1=C2Nc3ccccc3N2CCC1=O [compound 79]	660	> 10	> 10
CN(C)c1ccc(NC(=O)C2=C3Nc4cc(Cl)ccc4N3CCC2=O)cc1 [compound 80]	220	10	> 10
O=C1CCN2C(=C1C(=O)Nc1ccccc1)Nc1cc(Cl)ccc12 [compound 81]	66	> 10	10
O=C1CCN2C(=C1C(=O)Nc1ccncc1)Nc1cc(Cl)ccc12 [compound 82]	380	3	> 10
O=C1CCN2C(=C1C(=O)NC1CCC1)Nc1ccccc12 [compound 83]	30	> 30	10
O=C1CCN2C(=C1C(=O)Nc1ccccc1)Nc1ccc(Cl)cc12 [compound 84]	170	> 10	> 10
Cc1cc(N(C)C)ccc1NC(=O)C1=C2Nc3ccccc3N2CCC1=O [compound 85]	4000	10	> 10
CN(C)c1ccccc1NC(=O)C1=C2Nc3ccccc3N2CCC1=O [compound 87]	10000	10	10
Cc1cccc2c1NC1=C(C(=O)Nc3ccncc3)C(=O)CCN12 [compound 88]	390	10	> 10
Cc1cccc2c1NC1=C(C(=O)Nc3ccccc3)C(=O)CCN12 [compound 89]	10	1	> 10
O=C1CCN2C(=C1C(=O)Nc1c(F)c(F)c(F)c(F)c1F)Nc1ccccc12 [compound 91]	270	1 to 10	10
O=C1CCN2C(=C1C(=O)Nc1ccc(F)cc1F)Nc1ccccc12 [compound 92]	10	1	> 10
O=C1CCN2C(=C1C(=O)Nc1c(F)cc(F)cc1F)Nc1ccccc12 [compound 93]	15	1	3
Cc1cccc2c1NC1=C(C(=O)Nc3ccccc3F)C(=O)CCN12 [compound 94]	96	1	< 10
O=C1CCN2C(=C1C(=O)Nc1ccc(F)c(F)c1F)Nc1ccccc12 [compound 96]	1500	> 10	> 10
O=C1CCN2C(=C1C(=O)Nc1cc(F)ccc1F)Nc1ccccc12 [compound 98]	12	> 30	> 30
O=C1CCN2C(=C1C(=O)Nc1ncc[nH]1)Nc1ccccc12 [compound 99]	185	> 30	> 10
Cc1cc(NC(=O)C2=C3Nc4ccccc4N3CCC2=O)ccn1 [compound 100]	820	> 10	> 10
CNC(=O)C1=C2Nc3ccccc3N2CCC1=O [compound 102]	400	> 10	> 10
O=C1CCN2C(=C1C(=O)Nc1c(F)cc(F)cc1Br)Nc1ccccc12 [compound 103]	1200	> 10	> 10
